Common to all, as to type: cell-based
Experiment [1] has as its system Enterococcus faecium CL5137, VanA. Description: MIC susceptibility test. As to conditions: Enterococcus faecium CL5137, VanA; read-out: MIC CL5137.
Experiment [2] concerns Enterococcus faecalis CL5244, VanB. Kind of experiment: MIC susceptibility test. As to conditions: Enterococcus faecalis CL5244, VanB; read-out: MIC CL5244. On the procedure:
(§1) Evaluation of vancomycin analogs is performed using in vitro susceptibility tests and a time-kill assay. [NCCL Standard, 1993] In susceptibility tests, five strains of bacteria, two of the most important: Staphylococcus aureus and Enterococcus faecalis (both susceptible and resistant strains), and Bacillus cereus are chosen and bacteria viability remaining in each well is evaluated using a colorimetric assay based on the tetrazolium salt 3-(4,5-dimethyl-2-thiazolyl)-2,5-diphenyl-2H tetrazolium bromide (MTT) and minimum inhibitory concentration (MIC) values are determined as μg/mL. [Mosmann, T. (1983); Damour, O., et al. (1992); Mikami, Y., et al. (1994)] This assay gives susceptibility information quickly, efficiently, and clearly.
(§2) MICs are determined by the microdilution method using 96-well microplates. Samples are suspended with Cation Adjusted (20 to 25 mg of Ca^2+/mL and 10 to […] of Mg^2+) Mueller-Hinton broth (Difco Laboratories, Detroit, Mich.) and are two-fold diluted from 5 μg/mL to […] on microplates (12 step dilution). To each well, which contained 100 μL of cell suspension (10^6 CFU/mL), 100 μL of antibiotic solution is added and the plates are incubated at 37° C. for 24 h. 50 μL of MTT solution (1 mg/mL) is added to each well, then the plates are incubated under the same conditions (incubation time; 30 min for Bacillus cereus, Staphylococcus aureus, and Methicillin resistant Staphylococcus aureus; 2 hours for Enterococcus faecalis and Gentamicin, Streptmycin, Vancomycin Enterococcus faecalis). MTT is a yellow tetrazolium salt that is reduced by mitochondrial enzymes in viable cells to an insoluble blue formazan product. MIC values are evaluated by observing the lowest drug concentration to inhibit bacteria growth.

For experiment [3], the system named is Enterococcus faecalis (ATCC 29212). Kind of experiment: MIC susceptibility test, microdilution with MTT readout. As to conditions: Enterococcus faecalis ATCC29212; read-out: MIC EF. On the procedure:
as §1
(§3) All strains [Bacillus cereus (ATCC® 11778), Staphylococcus aureus (ATCC® 29213), Methicillin resistant Staphylococcus aureus (ATCC® 33591), Enterococcus faecalis (ATCC® 29212), and gentamicin, streptmycin, vancomycin resistant Enterococcus faecalis (ATCC® 51299), are purchased from REMEL (Lenexa, Kans.).
as §2
For orientation: Dilution methods test growth across graded concentrations, often in twofold steps.

Experiment [4] concerns Bacillus cereus (ATCC 11778). The experiment is described as above. Conditions: Bacillus cereus, ATCC11778, read-out: MIC BC. On the procedure:
as §1, §3, §2

Experiment [5] relates to Staphylococcus aureus (ATCC 29213). Described as above. Conditions: Staphylococcus aureus ATCC29213; read-out: MIC SA. The protocol:
as §1, §3, §2

Experiment [6] concerns Methicillin resistant Staphylococcus aureus (ATCC 33591). Described as above. Conditions: ATCC 3359 / ATCC 33591 / MRSA; Staphylococcus aureus ATCC3359, Methicillin resistance; read-out: MIC MRSA. On the procedure: as §1, §3, §2
The subject of experiment [7] is gentamicin, streptmycin, vancomycin resistant Enterococcus faecalis (ATCC 51299). Description: microbe, parasite or virus in culture. As to conditions: Enterococcus faecalis, ATCC51299, read-out: MIC VREF. On the procedure:
as §1, §3, §2

Structures are written as SMILES. Converted amounts (≈) assume the structure as drawn.

`CN[C@@H](CC(C)C)C(=O)N[C@H]1C(=O)N[C@@H](CC(N)=O)C(=O)N[C@H]2C(=O)NC3C(=O)N[C@H](C(=O)N[C@@H](C(=O)O)c4cc(O)cc(O)c4-c4cc3ccc4O)[C@H](O)c3ccc(c(Cl)c3)Oc3cc2cc(c3OC2OC(CSc3nc(N)cc(O)n3)C(O)C(O)C2OC2CC(C)(N)C(O)C(C)O2)Oc2ccc(cc2Cl)[C@H]1O` (some centres unmarked) [LXIII, Glucose-C6-2-thio-4-amino-6-hydroxypyrimidine Vancomycin]: the MIC in experiment [1] is more than 50 µg/mL; in experiment [2], 6.3 µg/mL (≈ 4 µM); in experiment [3], 2.5 µg/mL (≈ 1.59 µM); in experiment [4], 5 µg/mL (≈ 3.18 µM); in experiment [5], 5 µg/mL (≈ 3.18 µM); in experiment [6] it was more than 5 µg/mL. For the same molecule, in experiment [7], the MIC was more than 5 µg/mL.

On to `CN[C@@H](CC(C)C)C(=O)N[C@H]1C(=O)N[C@@H](CC(N)=O)C(=O)N[C@H]2C(=O)NC3C(=O)N[C@H](C(=O)N[C@@H](C(=O)O)c4cc(O)cc(O)c4-c4cc3ccc4O)[C@H](O)c3ccc(c(Cl)c3)Oc3cc2cc(c3OC2OC(CSc3nnc(C)c(O)n3)C(O)C(O)C2OC2CC(C)(N)C(O)C(C)O2)Oc2ccc(cc2Cl)[C@H]1O` (some centres unmarked) [LXIV, Glucose-C6-2-thio-6-azathymine Vancomycin], for which the MIC was more than 500 µg/mL in experiment [1]; 1.2 µg/mL (≈ 0.762 µM) in experiment [2]; 0.12 µg/mL (≈ 0.0762 µM) in experiment [3]; 0.08 µg/mL (≈ 0.0508 µM) in experiment [4]; 0.24 µg/mL (≈ 0.152 µM) in experiment [5]; 0.32 µg/mL (≈ 0.203 µM) in experiment [6]. For the same molecule, the MIC in experiment [7] amounted to 0.16 µg/mL (≈ 0.102 µM).

Take `C=C1N[C@@H]2C(=O)N[C@@H](C(=O)O)c3cc(O)cc(O)c3-c3cc(ccc3O)C1NC(=O)[C@@H]1NC(=O)[C@H](CC(N)=O)NC(=O)[C@H](NC(=O)[C@H](CC(C)C)NC)[C@H](O)c3ccc(c(Cl)c3)Oc3cc1cc(c3OC1OC(CSc3nc(-c4ccccc4)c(-c4ccccc4)o3)C(O)C(O)C1OC1CC(C)(N)C(O)C(C)O1)Oc1ccc(cc1Cl)[C@H]2O` (some centres unmarked) [LXIX, Glucose-C6-2-thio-4,5-diphenyloxazole Vancomycin]: the MIC worked out at 50 µg/mL (≈ 29.7 µM) in experiment [1]; 0.6 µg/mL (≈ 0.357 µM) in experiment [2]; 0.24 µg/mL (≈ 0.143 µM) in experiment [3]; 1.3 µg/mL (≈ 0.773 µM) in experiment [4]; 1.9 µg/mL (≈ 1.13 µM) in experiment [5]; 2.5 µg/mL (≈ 1.49 µM) in experiment [6]. Also, the MIC in experiment [7] stood at 0.32 µg/mL (≈ 0.19 µM).

In the case of `CN[C@@H](CC(C)C)C(=O)N[C@H]1C(=O)N[C@@H](CC(N)=O)C(=O)N[C@H]2C(=O)NC3C(=O)N[C@H](C(=O)N[C@@H](C(=O)O)c4cc(O)cc(O)c4-c4cc3ccc4O)[C@H](O)c3ccc(c(Cl)c3)Oc3cc2cc(c3OC2OC(CSc3nc4cc(OC)ccc4[nH]3)C(O)C(O)C2OC2CC(C)(N)C(O)C(C)O2)Oc2ccc(cc2Cl)[C@H]1O` (some centres unmarked) [LXV, Glucose-C6-2-thio-5-methoxybenzimidazole Vancomycin], the MIC was more than 50 µg/mL in experiment [1]; 13 µg/mL (≈ 8.07 µM) in experiment [2]; 0.63 µg/mL (≈ 0.391 µM) in experiment [3]; 0.63 µg/mL (≈ 0.391 µM) in experiment [4]; 1.9 µg/mL (≈ 1.18 µM) in experiment [5]; 2.5 µg/mL (≈ 1.55 µM) in experiment [6]. Further, the MIC in experiment [7] is 2.5 µg/mL (≈ 1.55 µM).

On to `CN[C@@H](CC(C)C)C(=O)N[C@H]1C(=O)N[C@@H](CC(N)=O)C(=O)N[C@H]2C(=O)NC3C(=O)N[C@H](C(=O)N[C@@H](C(=O)O)c4cc(O)cc(O)c4-c4cc3ccc4O)[C@H](O)c3ccc(c(Cl)c3)Oc3cc2cc(c3OC2OC(CSc3nc4cc(Cl)ccc4s3)C(O)C(O)C2OC2CC(C)(N)C(O)C(C)O2)Oc2ccc(cc2Cl)[C@H]1O` (some centres unmarked) [LXVI, Glucose-C6-2-thio-5-chlorobenzothiazole Vancomycin], for which the MIC worked out at 50 µg/mL (≈ 30.6 µM) in experiment [1]; 0.4 µg/mL (≈ 0.245 µM) in experiment [2]; 0.24 µg/mL (≈ 0.147 µM) in experiment [3]; 0.16 µg/mL (≈ 0.098 µM) in experiment [4]; 0.63 µg/mL (≈ 0.386 µM) in experiment [5]; 1.3 µg/mL (≈ 0.796 µM) in experiment [6]. In experiment [7], the MIC is 0.32 µg/mL (≈ 0.196 µM).

These data come from patent publication US6710168B1, “Glycopeptide antibiotics, combinatorial libraries of glycopeptide antibiotics and methods of producing same” (The Trustees of the University of Princeton, priority 1999, dated 2004).
